Measurements as given in patent publication US7910647B2, “Adhesion inhibition of microorganisms by non-ionic surfactants” (Henkel AG & Co. KGaA, priority 2003, dated 2011).

System: Aspergillus niger
Assay: Adhesion test with molds on silicone sealant DC3390 film
Conditions: 1 wt. % surfactant in silicone sealant DC3390; adhered Aspergillus niger spores (CFU) after 48 hours at 25° C.; sealant with no active substance = 100
Experimental: The silicone sealant DC3390 was used. 1 wt. % of surfactant was added and homogenized in the Speedmixer. The surfactants indicated in Table 1 were tested in comparison with the joint sealing compound without the addition of the surfactants being tested. The resulting composition was spread as the film (22×22×2 mm) and left to harden in air. The resulting test specimen was disinfected with 70% ethanol for 10 minutes, then washed with distilled water and dried. The test specimens were subsequently coated with a germ suspension of Aspergillus niger and incubated for one hour. The germ suspension was then siphoned off and the specimen was washed twice. The specimens were transferred into sterile tubes that contained 5 ml of inactivation solution and shaken on a shaker for 10 minutes at 400 rpm. To determine the number of adhered spores, firstly the specimens were placed in sterile 6-well plates and covered with wort agar with INT, secondly a determination of the colony count of the inactivation solution was carried out by the inoculation plate method. After 48 hours incubation at 25° C., the number of colony forming units (CFU) was subsequently determined.

CCO[Si](CCC(F)(F)C(F)(F)C(F)(F)C(F)(F)C(F)(F)C(F)(F)F)(OCC)OCC [DYNASYLAN F8261, perfluorinated octyltriethoxysilane]
Mold adhesion [%]: 80%
